Assay results taken from the CheMixHub viscosity set.
± gives the uncertainty stated by the source.

Experiment: xn = mol fraction of the nth substance listed

[Ca+2].[Cl-].[Cl-] + O
Settings | viscosity [mPa·s]
293.15 K, 101 kPa, x1 = 0.059 | 2.97 ± 0.08
298.15 K, 101 kPa, x1 = 0.000396 | 0.8977 ± 0.019
298.15 K, 101 kPa, x1 = 0.00043 | 0.8982 ± 0.019
298.15 K, 101 kPa, x1 = 0.00081 | 0.9042 ± 0.019
298.15 K, 101 kPa, x1 = 0.000844 | 0.9046 ± 0.019
298.15 K, 101 kPa, x1 = 0.00106 | 0.9082 ± 0.019
298.15 K, 101 kPa, x1 = 0.00107 | 0.9081 ± 0.019
298.15 K, 101 kPa, x1 = 0.00123 | 0.9106 ± 0.019
298.15 K, 101 kPa, x1 = 0.0013 | 0.9117 ± 0.019
298.15 K, 101 kPa, x1 = 0.00147 | 0.9145 ± 0.019
298.15 K, 101 kPa, x1 = 0.00151 | 0.9149 ± 0.019
298.15 K, 101 kPa, x1 = 0.00175 | 0.9186 ± 0.019
298.15 K, 101 kPa, x1 = 0.002367 | 0.9277 ± 0.019
298.15 K, 101 kPa, x1 = 0.002527 | 0.9302 ± 0.019
298.15 K, 101 kPa, x1 = 0.002586 | 0.9311 ± 0.019
298.15 K, 101 kPa, x1 = 0.003329 | 0.9425 ± 0.02
298.15 K, 101 kPa, x1 = 0.003395 | 0.9435 ± 0.02
298.15 K, 101 kPa, x1 = 0.003497 | 0.945 ± 0.02
298.15 K, 101 kPa, x1 = 0.003672 | 0.9476 ± 0.02
298.15 K, 101 kPa, x1 = 0.004546 | 0.9609 ± 0.02
298.15 K, 101 kPa, x1 = 0.004721 | 0.9637 ± 0.02
298.15 K, 101 kPa, x1 = 0.005244 | 0.9719 ± 0.02
298.15 K, 101 kPa, x1 = 0.006244 | 0.9873 ± 0.021
298.15 K, 101 kPa, x1 = 0.007041 | 1 ± 0.021
298.15 K, 101 kPa, x1 = 0.007167 | 1.002 ± 0.021
298.15 K, 101 kPa, x1 = 0.007446 | 1.006 ± 0.021
298.15 K, 101 kPa, x1 = 0.008695 | 1.027 ± 0.021
298.15 K, 101 kPa, x1 = 0.009449 | 1.039 ± 0.022
298.15 K, 101 kPa, x1 = 0.009885 | 1.046 ± 0.022
298.15 K, 101 kPa, x1 = 0.01022 | 1.052 ± 0.022
298.15 K, 101 kPa, x1 = 0.01042 | 1.055 ± 0.022
298.15 K, 101 kPa, x1 = 0.01059 | 1.058 ± 0.022
298.15 K, 101 kPa, x1 = 0.01077 | 1.061 ± 0.022
298.15 K, 101 kPa, x1 = 0.01094 | 1.064 ± 0.022
298.15 K, 101 kPa, x1 = 0.01192 | 1.081 ± 0.023
298.15 K, 101 kPa, x1 = 0.01272 | 1.095 ± 0.023
298.15 K, 101 kPa, x1 = 0.01378 | 1.114 ± 0.023
298.15 K, 101 kPa, x1 = 0.01401 | 1.118 ± 0.023
298.15 K, 101 kPa, x1 = 0.01513 | 1.139 ± 0.024
298.15 K, 101 kPa, x1 = 0.01538 | 1.143 ± 0.024
298.15 K, 101 kPa, x1 = 0.01928 | 1.219 ± 0.025
298.15 K, 101 kPa, x1 = 0.02043 | 1.243 ± 0.026
298.15 K, 101 kPa, x1 = 0.02048 | 1.244 ± 0.026
298.15 K, 101 kPa, x1 = 0.02097 | 1.254 ± 0.026
298.15 K, 101 kPa, x1 = 0.02327 | 1.304 ± 0.027
298.15 K, 101 kPa, x1 = 0.02529 | 1.35 ± 0.028
298.15 K, 101 kPa, x1 = 0.02589 | 1.364 ± 0.028
298.15 K, 101 kPa, x1 = 0.0267 | 1.383 ± 0.029
298.15 K, 101 kPa, x1 = 0.027 | 1.391 ± 0.029
298.15 K, 101 kPa, x1 = 0.02942 | 1.451 ± 0.03
298.15 K, 101 kPa, x1 = 0.02988 | 1.464 ± 0.03
298.15 K, 101 kPa, x1 = 0.03066 | 1.484 ± 0.031
298.15 K, 101 kPa, x1 = 0.03069 | 1.485 ± 0.031
298.15 K, 101 kPa, x1 = 0.0311 | 1.496 ± 0.031
298.15 K, 101 kPa, x1 = 0.03274 | 1.541 ± 0.032
298.15 K, 101 kPa, x1 = 0.03315 | 1.553 ± 0.032
298.15 K, 101 kPa, x1 = 0.03378 | 1.572 ± 0.033
298.15 K, 101 kPa, x1 = 0.03442 | 1.59 ± 0.033
298.15 K, 101 kPa, x1 = 0.03633 | 1.648 ± 0.034
298.15 K, 101 kPa, x1 = 0.03656 | 1.654 ± 0.035
298.15 K, 101 kPa, x1 = 0.03673 | 1.66 ± 0.035
298.15 K, 101 kPa, x1 = 0.03831 | 1.711 ± 0.036
298.15 K, 101 kPa, x1 = 0.03856 | 1.719 ± 0.036
298.15 K, 101 kPa, x1 = 0.04162 | 1.824 ± 0.038
298.15 K, 101 kPa, x1 = 0.04322 | 1.883 ± 0.039
298.15 K, 101 kPa, x1 = 0.04455 | 1.933 ± 0.04
298.15 K, 101 kPa, x1 = 0.04537 | 1.967 ± 0.041
298.15 K, 101 kPa, x1 = 0.04781 | 2.068 ± 0.043
298.15 K, 101 kPa, x1 = 0.04866 | 2.105 ± 0.044
298.15 K, 101 kPa, x1 = 0.0498 | 2.157 ± 0.045
298.15 K, 101 kPa, x1 = 0.0506 | 2.194 ± 0.046
298.15 K, 101 kPa, x1 = 0.0536 | 2.342 ± 0.049
298.15 K, 101 kPa, x1 = 0.05494 | 2.412 ± 0.051
298.15 K, 101 kPa, x1 = 0.05842 | 2.611 ± 0.055
298.15 K, 101 kPa, x1 = 0.06081 | 2.761 ± 0.058
298.15 K, 101 kPa, x1 = 0.06128 | 2.791 ± 0.059
298.15 K, 101 kPa, x1 = 0.065 | 3.054 ± 0.064
298.15 K, 101 kPa, x1 = 0.06579 | 3.114 ± 0.066
298.15 K, 101 kPa, x1 = 0.06654 | 3.173 ± 0.067
298.15 K, 101 kPa, x1 = 0.06668 | 3.182 ± 0.067
298.15 K, 101 kPa, x1 = 0.07055 | 3.515 ± 0.074
298.15 K, 101 kPa, x1 = 0.07902 | 4.414 ± 0.093
298.15 K, 101 kPa, x1 = 0.08019 | 4.563 ± 0.096
298.15 K, 101 kPa, x1 = 0.08048 | 4.6 ± 0.097
298.15 K, 101 kPa, x1 = 0.08806 | 5.733 ± 0.12
298.15 K, 101 kPa, x1 = 0.08818 | 5.754 ± 0.12
298.15 K, 101 kPa, x1 = 0.09192 | 6.437 ± 0.14
298.15 K, 101 kPa, x1 = 0.09327 | 6.707 ± 0.14
298.15 K, 101 kPa, x1 = 0.09562 | 7.209 ± 0.15
298.15 K, 101 kPa, x1 = 0.09975 | 8.198 ± 0.17
298.15 K, 101 kPa, x1 = 0.1012 | 8.586 ± 0.18
298.15 K, 101 kPa, x1 = 0.1071 | 10.34 ± 0.22
298.15 K, 101 kPa, x1 = 0.1099 | 11.29 ± 0.24
298.15 K, 101 kPa, x1 = 0.1131 | 12.5 ± 0.27
298.15 K, 101 kPa, x1 = 0.1167 | 14.03 ± 0.3
298.15 K, 101 kPa, x1 = 0.1168 | 14.08 ± 0.3
298.15 K, 101 kPa, x1 = 0.1185 | 14.84 ± 0.32
298.15 K, 101 kPa, x1 = 0.1243 | 17.82 ± 0.38
298.15 K, 101.3 kPa, x1 = 0.03478 | 1.609 ± 0.034
298.15 K, 101.3 kPa, x1 = 0.05127 | 2.238 ± 0.047
